These results are taken from ChEMBL document CHEMBL5113538, “Discovery of Novel Allosteric EGFR L858R Inhibitors for the Treatment of Non-Small-Cell Lung Cancer as a Single Agent or in Combination with Osimertinib” (J Med Chem, 2022).

Structures are written as SMILES.

In data set [1] the test system is BaF3. As to the kind of experiment: Cytotoxicity against mouse BaF3 cells harboring EGFR L858R/C797S mutant assessed as reduction in cell viability measured after 72 hrs by cell titre glo luminescence assay. The data set is classed as functional, cell-based. To be noted: for IC50: BaF3, 72 h; for IC90: BaF3, time 72 hrs.
Data set [2] deals with Epidermal growth factor receptor (Homo sapiens, UniProt P00533, C797S/L858R/T790M).
Data set [3] deals with BaF3. As to the kind of experiment: Cytotoxicity against mouse BaF3 cells expressing EGFR L858R/T790M/C797S mutant assessed as reduction in cell viability measured after 72 hrs by cell titre glo luminescence assay. In kind it is functional, cell-based. To be noted: for IC50: BaF3, 72 h; for IC90: BaF3, time 72 hrs.
The target in data set [4] is Epidermal growth factor receptor (Homo sapiens, UniProt P00533, C797S/L858R).
Data set [5] can be described thus: Intrinsic clearance in mouse liver hepatocytes measured per 10^6 cells incubated upto 2 hrs by LC-MS/MS analysis. The data set is classed as ADME, cell-based, Hepatocyte. To be noted: read-out: CLH.
A short description of data set [6]: Intrinsic clearance in human liver hepatocytes measured per 10^6 cells incubated upto 2 hrs by LC-MS/MS analysis. In kind it is ADME, cell-based, Hepatocyte. To be noted: read-out: CLH.
The subject of data set [7] is BaF3. Briefly: Antitumor activity against mouse BaF3 cells harboring EGFR L858R/C797S mutant allografted in Balb/c nude mouse assessed as in tumor growth inhibition at 30 mg/kg administered twice daily measured on day 20. In kind it is functional. To be noted: BaF3, 480 h, time 20 day, read-out: TGI.

Chain of Epidermal growth factor receptor (Homo sapiens, UniProt P00533, C797S/L858R) (P00533 25-1210 C797S/L858R limits assumed): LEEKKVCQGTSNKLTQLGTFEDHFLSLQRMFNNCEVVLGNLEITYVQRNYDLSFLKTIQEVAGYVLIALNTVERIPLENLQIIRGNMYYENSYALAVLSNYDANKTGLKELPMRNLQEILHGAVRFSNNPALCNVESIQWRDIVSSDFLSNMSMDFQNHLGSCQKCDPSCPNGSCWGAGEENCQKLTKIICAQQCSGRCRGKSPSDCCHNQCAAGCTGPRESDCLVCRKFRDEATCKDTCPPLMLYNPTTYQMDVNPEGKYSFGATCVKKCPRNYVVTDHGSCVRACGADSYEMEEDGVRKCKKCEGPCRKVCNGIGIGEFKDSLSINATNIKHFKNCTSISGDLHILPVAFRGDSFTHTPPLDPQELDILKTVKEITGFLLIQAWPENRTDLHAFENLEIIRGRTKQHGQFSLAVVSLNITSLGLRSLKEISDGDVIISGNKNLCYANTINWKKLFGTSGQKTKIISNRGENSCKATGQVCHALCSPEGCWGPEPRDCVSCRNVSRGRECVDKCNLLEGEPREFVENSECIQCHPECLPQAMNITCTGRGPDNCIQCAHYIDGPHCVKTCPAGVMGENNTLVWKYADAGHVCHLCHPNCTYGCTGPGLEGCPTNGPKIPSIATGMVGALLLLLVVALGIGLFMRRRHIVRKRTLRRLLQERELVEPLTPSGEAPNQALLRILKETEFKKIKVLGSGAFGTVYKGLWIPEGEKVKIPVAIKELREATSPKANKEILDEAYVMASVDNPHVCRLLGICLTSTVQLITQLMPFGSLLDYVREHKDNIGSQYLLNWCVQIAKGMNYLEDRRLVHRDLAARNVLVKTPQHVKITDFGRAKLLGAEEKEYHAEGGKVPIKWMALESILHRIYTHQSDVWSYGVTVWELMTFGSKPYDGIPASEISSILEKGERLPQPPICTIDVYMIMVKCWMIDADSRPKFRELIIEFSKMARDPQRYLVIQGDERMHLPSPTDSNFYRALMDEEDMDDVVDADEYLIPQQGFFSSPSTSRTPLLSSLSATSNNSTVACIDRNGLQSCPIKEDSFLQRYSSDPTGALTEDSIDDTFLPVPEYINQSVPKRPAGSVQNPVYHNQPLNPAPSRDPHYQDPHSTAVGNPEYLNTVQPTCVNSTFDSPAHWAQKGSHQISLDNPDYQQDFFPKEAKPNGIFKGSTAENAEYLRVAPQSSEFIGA
Chain of Epidermal growth factor receptor (Homo sapiens, UniProt P00533, C797S/L858R/T790M) (P00533 25-1210 T790M/C797S/L858R limits assumed): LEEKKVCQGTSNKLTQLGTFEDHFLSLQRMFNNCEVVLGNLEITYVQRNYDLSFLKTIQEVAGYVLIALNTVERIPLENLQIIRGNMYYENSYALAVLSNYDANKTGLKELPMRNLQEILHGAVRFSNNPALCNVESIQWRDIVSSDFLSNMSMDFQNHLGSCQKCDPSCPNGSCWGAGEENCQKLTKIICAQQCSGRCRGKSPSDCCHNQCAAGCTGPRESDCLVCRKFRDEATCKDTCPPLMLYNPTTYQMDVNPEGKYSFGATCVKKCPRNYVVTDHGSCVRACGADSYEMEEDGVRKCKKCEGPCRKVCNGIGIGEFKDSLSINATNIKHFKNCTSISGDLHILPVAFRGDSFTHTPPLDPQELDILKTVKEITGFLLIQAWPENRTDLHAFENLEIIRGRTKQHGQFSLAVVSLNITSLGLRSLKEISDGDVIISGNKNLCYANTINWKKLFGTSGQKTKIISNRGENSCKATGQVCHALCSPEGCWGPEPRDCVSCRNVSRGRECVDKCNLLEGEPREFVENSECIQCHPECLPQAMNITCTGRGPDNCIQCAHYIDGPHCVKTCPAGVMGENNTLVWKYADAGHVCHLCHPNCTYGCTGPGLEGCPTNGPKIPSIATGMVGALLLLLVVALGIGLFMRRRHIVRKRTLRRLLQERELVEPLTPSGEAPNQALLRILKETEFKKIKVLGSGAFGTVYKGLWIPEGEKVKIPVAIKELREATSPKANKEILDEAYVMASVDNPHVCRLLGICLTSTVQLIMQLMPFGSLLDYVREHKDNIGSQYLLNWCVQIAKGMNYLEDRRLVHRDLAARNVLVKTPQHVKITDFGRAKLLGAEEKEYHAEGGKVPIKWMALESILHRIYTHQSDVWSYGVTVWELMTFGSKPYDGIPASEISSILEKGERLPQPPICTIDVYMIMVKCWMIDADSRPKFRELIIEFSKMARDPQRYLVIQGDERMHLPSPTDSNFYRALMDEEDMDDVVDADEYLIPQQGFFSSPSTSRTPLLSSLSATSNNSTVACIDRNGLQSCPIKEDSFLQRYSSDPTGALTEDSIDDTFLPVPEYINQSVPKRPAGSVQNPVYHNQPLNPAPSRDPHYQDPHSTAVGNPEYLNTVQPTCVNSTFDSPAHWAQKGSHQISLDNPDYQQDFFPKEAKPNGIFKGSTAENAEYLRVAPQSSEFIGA

A word on the IC50: it is the midpoint of a concentration-inhibition curve. What is called IC90 is the point of the concentration-response curve where the effect stands at 90%. Turning to `O=C(Nc1nccs1)C(c1ncn2c1CCC2)N1Cc2ccc(C#Cc3ccccc3)cc2C1=O` (configuration not stated), in the data set on BaF3 [1], the 50% inhibitory concentration (IC50) was above 10000 nM and the IC90 was above 10000 nM.
For the compound `Cc1c(-c2ccc(N3CCOCC3)cc2)cc(C(F)F)c2cn(C(C(=O)Nc3nccs3)c3ncn4c3C[C@@H](F)C4)nc12` (mixture of isomers), the IC50 with BaF3 [1] is 4 nM; in data set [2] it was 7 nM.
On to `Cc1c(C#Cc2ccc(CN3CCC(CO)CC3)cc2)cc(C(F)F)c2cn(C(C(=O)Nc3nccs3)c3ncn4c3CCC4)nc12` (configuration not stated), for which the IC50 is 1 nM in the data set with BaF3 [3], 2 nM in the data set with BaF3 [1] and 3 nM in data set [2].
For `O=C(Nc1nccs1)C(c1ncn2c1C[C@@H](F)C2)n1cc2c(Cl)cc(-c3ccc(N4CCOCC4)cc3)c(Cl)c2n1` (mixture of isomers), the figures for the IC50 (in the data set with BaF3 [1]; in data set [2]; in data set [4]) were 12 nM, 6 nM and 17 nM, respectively.
For the compound `O=C(Nc1nccs1)C(c1ncn2c1CCC2)N1Cc2ccc(C#Cc3ccc(CN4CCC(O)CC4)cc3)cc2C1=O` (configuration not stated), the IC50 was found to be 10 nM in the data set on BaF3 [3], 1250 nM in the data set on BaF3 [1], 7 nM in data set [2] and 297 nM in data set [4]. Besides, the IC90 came out at 24 nM with BaF3 [3] and 3250 nM in the data set with BaF3 [1].
`O=C(Nc1nccs1)C(c1ncn2c1CCC2)N1Cc2c(cc(C#Cc3ccc(CN4CCC(CO)CC4)cc3)cc2C(F)(F)F)C1=O` (configuration not stated): the IC50 amounted to 0.5 nM in the data set with BaF3 [3], 2 nM in the data set on BaF3 [1], 3 nM in data set [2] and 26 nM in data set [4]. For the same compound, the figures for the IC90 in the data set on BaF3 [3] and in the data set with BaF3 [1] were 1 nM and 5 nM, respectively. Moreover, the figures for the hepatocyte CLint in data set [5] and in data set [6] were 50 µL/min/1e6 cells and 3.3 µL/min/1e6 cells, respectively.
For the compound `Cc1c(-c2ccc(N3CCOCC3)cc2)cc(C(F)F)c2cn(C(C(=O)Nc3nccs3)c3ncn4c3CCC43CC3)nc12` (configuration not stated), the IC50 worked out at 3 nM in the data set on BaF3 [1] and 10 nM in data set [2]. In the data set on BaF3 [7], the inhibition in vivo at 30 mg/kg turned out to be 26%.
In the case of `O=C(Nc1nccs1)C(c1ncn2c1CCC2)n1cc2c(F)cc(C#Cc3ccc(CN4CCC(O)CC4)cc3)cc2n1` (configuration not stated), the IC50 in the data set with BaF3 [3] was determined as 9 nM; in the data set with BaF3 [1] it was 800 nM; in data set [2], 6 nM; in data set [4], 106 nM.
With `CC1(C)CCc2c(C(C(=O)Nc3nccs3)N3Cc4c(cc(C#Cc5ccc(CN6CCC(CO)CC6)cc5)cc4C(F)F)C3=O)ncn21` (configuration not stated), the IC50 in the data set with BaF3 [3] was determined as 1 nM; in the data set on BaF3 [1], 1 nM; in data set [2], 4 nM; in data set [4], 12 nM. Further, the IC90 with BaF3 [3] is 3 nM; in the data set on BaF3 [1], 2 nM. The results for the hepatocyte CLint in data set [5] and in data set [6] were 19 µL/min/1e6 cells and 5 µL/min/1e6 cells, respectively.
`O=C(Nc1nccs1)C(c1cc[nH]n1)N1Cc2ccccc2C1=O` (configuration not stated): the figures for the IC50 in data set [2] and in data set [4] were 938 nM and above 10000 nM, respectively.
Regarding `Cc1[nH]nc(C(C(=O)Nc2nccs2)N2Cc3ccccc3C2=O)c1C` (configuration not stated), the IC50 in data set [2] and in data set [4] was above 10000 nM in each case.
For the compound `O=C(Nc1nccs1)C(c1n[nH]c2c1CCC2)N1Cc2ccccc2C1=O` (configuration not stated), the IC50 in data set [2] amounted to 23 nM; in data set [4], 3200 nM.
Take `O=C(Nc1nccs1)C(c1ncn2c1CCC2)N1Cc2c(F)cc(C#Cc3ccc(CN4CCC(O)CC4)cc3)cc2C1=O` (configuration not stated): the IC50 with BaF3 [3] turned out to be 5 nM; in the data set with BaF3 [1], 72 nM; in data set [2] it was 5 nM; in data set [4], 33 nM. Further, the values for the IC90 in the data set on BaF3 [3] and in the data set on BaF3 [1] were 13 nM and 285 nM, respectively. For the same compound, the hepatocyte CLint came out at 3.6 µL/min/1e6 cells in data set [5] and 1.6 µL/min/1e6 cells in data set [6].
For the compound `CCN1CCN(c2ccc(-c3cc(Cl)c4cn(C(C(=O)Nc5nccs5)c5ncn6c5C[C@@H](F)C6)nc4c3Cl)cc2)CC1` (mixture of isomers), the IC50 with BaF3 [3] was determined as 8 nM; with BaF3 [1] it was 15 nM; in data set [4], 15 nM. For the same compound, the IC90 stood at 19 nM in the data set on BaF3 [3] and 42 nM in the data set with BaF3 [1].
Turning to `O=C(Nc1nccs1)C(c1ncn2c1CCC2)N1Cc2c(Cl)cccc2C1=O` (configuration not stated), the hepatocyte CLint in data set [5] was determined as 68 µL/min/1e6 cells; in data set [6], 7 µL/min/1e6 cells. The IC50 turned out to be 4 nM in data set [2] and 183 nM in data set [4].
On to `O=C(Nc1nccs1)C(c1ncn2c1CCC2)N1Cc2ccccc2C1=O` (configuration not stated), for which the IC50 in data set [2] is 16 nM; in data set [4], 1700 nM.
For `CCN1CCN(c2ccc(-c3cc(Cl)c4cn(C(C(=O)Nc5nccs5)c5ncn6c5CCC6)nc4c3Cl)cc2)CC1` (configuration not stated), the values for the IC50 (in the data set with BaF3 [3]; in the data set on BaF3 [1]; in data set [4]) were 13 nM, 26 nM and 22 nM, respectively. Also, the IC90 in the data set on BaF3 [3] was 33 nM; in the data set with BaF3 [1], 70 nM.
Turning to `O=C(Nc1nccs1)C(c1ncn2c1CCC2)n1cc2c(Cl)cc(-c3ccc(N4CCOCC4)cc3)c(Cl)c2n1` (configuration not stated), the IC50 in the data set on BaF3 [3] worked out at 31 nM; in the data set with BaF3 [1] it was 46 nM; in data set [4], 33 nM. For the same compound, the IC90 in the data set with BaF3 [3] was 74 nM; with BaF3 [1] it was 126 nM.
Consider `O=C(Nc1nccs1)C(c1ncn2c1CCC2)N1Cc2ccc(C#Cc3ccc(CN4CCCCC4)cc3)cc2C1=O` (configuration not stated), for which the IC50 with BaF3 [3] came out at 17 nM; in the data set with BaF3 [1] it was 1300 nM; in data set [2] it was 16 nM; in data set [4], 342 nM. Moreover, the IC90 in the data set on BaF3 [3] came out at 42 nM; in the data set with BaF3 [1], 3100 nM. The hepatocyte CLint in data set [5] turned out to be 6 µL/min/1e6 cells; in data set [6], 6.5 µL/min/1e6 cells.
For the compound `O=C(Nc1nccs1)C(c1ncn2c1CCC2)N1Cc2c(F)cc(C#Cc3ccc(CN4CCCCC4)cc3)cc2C1=O` (configuration not stated), the IC50 in the data set with BaF3 [3] was determined as 10 nM; with BaF3 [1], 207 nM; in data set [2], 7 nM; in data set [4], 54 nM. The IC90 is 24 nM in the data set with BaF3 [3] and 711 nM in the data set with BaF3 [1].
Regarding `O=C(Nc1nccs1)C(c1ncn2c1C[C@@H](F)C2)n1cc2c(Cl)cc(-c3ccc(N4CCN(C5CC5)CC4)cc3)c(Cl)c2n1` (mixture of isomers), the IC50 with BaF3 [3] turned out to be 23 nM; in the data set with BaF3 [1] it was 36 nM; in data set [2], 17 nM; in data set [4], 30 nM. Moreover, the IC90 in the data set with BaF3 [3] was 55 nM; in the data set with BaF3 [1], 104 nM.
Regarding `O=C(Nc1nccs1)C(c1ncn2c1CCC2)N1Cc2c(F)cc(C#Cc3ccc(CN4CCC(CO)CC4)cc3)cc2C1=O` (configuration not stated), the IC50 with BaF3 [3] was determined as 1 nM; in the data set with BaF3 [1] it was 16 nM; in data set [4] it was 12 nM. Further, the concentration for an effect of 90% (IC90) in the data set with BaF3 [3] is 2 nM; with BaF3 [1], 47 nM.
On to `CCN1CCN(c2ccc(-c3cc(F)c4cn(C(C(=O)Nc5nccs5)c5ncn6c5CCC6)nc4c3)cc2)CC1` (configuration not stated), for which the IC50 with BaF3 [3] was found to be 13 nM; in the data set with BaF3 [1], 650 nM; in data set [2], 7 nM; in data set [4], 91 nM. The IC90 stood at 30 nM in the data set with BaF3 [3] and 2600 nM with BaF3 [1].
As for `O=C(Nc1nccs1)C(c1ncn2c1CCC2)N1Cc2ccc(C#Cc3cccnc3)cc2C1=O` (configuration not stated), the IC50 in the data set on BaF3 [3] is 1200 nM; with BaF3 [1], above 10000 nM; in data set [2] it was 460 nM; in data set [4], above 10000 nM. The IC90 in the data set on BaF3 [3] is 3000 nM; in the data set on BaF3 [1] it was above 10000 nM.
Turning to `Nc1ccc(C#Cc2cc(F)c3c(c2)C(=O)N(C(C(=O)Nc2nccs2)c2ncn4c2CCC4)C3)cn1` (configuration not stated), the IC50 is 200 nM with BaF3 [3], above 10000 nM in the data set on BaF3 [1], 116 nM in data set [2] and 1100 nM in data set [4]. Also, the IC90 in the data set with BaF3 [3] is 490 nM; in the data set with BaF3 [1] it was above 10000 nM.
On to `O=C(Nc1nccs1)C(c1ncn2c1CCC2)N1Cc2c(F)cc(C#Cc3cccnc3)cc2C1=O` (configuration not stated), for which the IC50 with BaF3 [3] came to 12 nM; in the data set with BaF3 [1], 1800 nM; in data set [2], 7 nM; in data set [4], 129 nM. Moreover, the IC90 in the data set on BaF3 [3] turned out to be 30 nM; with BaF3 [1], 7000 nM.
For `O=C(Nc1nccs1)C(c1cc(F)ccc1O)N1Cc2ccc(-c3ccc(N4CCNCC4)cc3)cc2C1=O` (configuration not stated), the IC50 came out at 30 nM with BaF3 [3] and 1550 nM in the data set with BaF3 [1]. The IC90 came out at 40 nM in the data set on BaF3 [3] and 7280 nM in the data set with BaF3 [1].
Consider `O=C(Nc1nccs1)C(c1cc(F)ccc1O)N1Cc2ccccc2C1=O` (configuration not stated), for which the hepatocyte CLint in data set [5] worked out at 27 µL/min/1e6 cells; in data set [6], 67 µL/min/1e6 cells.
With `O=C(Nc1nccs1)C(c1ncn2c1CCC2)N1Cc2c(cc(C#Cc3ccc(CN4CCC(CO)CC4)cc3)cc2C(F)F)C1=O` (configuration not stated), the IC50 in the data set with BaF3 [3] was found to be 1 nM; in the data set on BaF3 [1] it was 4 nM; in data set [2], 4 nM; in data set [4] it was 13 nM. For the same compound, the 90% effect concentration (IC90) with BaF3 [3] worked out at 3 nM; in the data set on BaF3 [1], 12 nM. For the same compound, the figures for the hepatocyte CLint in data set [5] and in data set [6] were 33 µL/min/1e6 cells and 3.1 µL/min/1e6 cells, respectively.
